Assay results from the supplement of paper PMC10307832.

Assays:
Assay in all cases: relative viability (nuclei count vs DMSO), 5 days (fraction); higher = more cells survive
Lestaurtinib + Foretinib = compound: C[C@]12O[C@H](C[C@]1(O)CO)n1c3ccccc3c3c4c(c5c6ccccc6n2c5c31)CNC4=O [Lestaurtinib] + COc1cc2c(Oc3ccc(NC(=O)C4(C(=O)Nc5ccc(F)cc5)CC4)cc3F)ccnc2cc1OCCCN1CCOCC1 [Foretinib] (partner 0.25 µM)
Outline: (§1)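 Five library-drug doses in √10 steps were combined with a fixed anchor-drug dose, or a single drug was given alone, by pin tool to lung cancer cell lines in 1536-well plates the day after seeding. Nuclei were stained and counted after 5 days. Relative viability is the nuclei count in treated wells over that in vehicle wells, taken as the median of duplicate plates.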

Lestaurtinib + Alpelisib = compound: C[C@]12O[C@H](C[C@]1(O)CO)n1c3ccccc3c3c4c(c5c6ccccc6n2c5c31)CNC4=O [Lestaurtinib] + Cc1nc(NC(=O)N2CCC[C@H]2C(N)=O)sc1-c1ccnc(C(C)(C)C(F)(F)F)c1 [Alpelisib] (partner 2 µM)
Outline: as §1

TPCA-1 + Navitoclax = compound: C1=CC(=CC=C1C2=CC(=C(S2)NC(=O)N)C(=O)N)F [TPCA-1] + CC1(C)CCC(c2ccc(Cl)cc2)=C(CN2CCN(c3ccc(C(=O)NS(=O)(=O)c4ccc(N[C@H](CCN5CCOCC5)CSc5ccccc5)c(S(=O)(=O)C(F)(F)F)c4)cc3)CC2)C1 [Navitoclax] (partner 0.5 µM)
Outline: as §1

[1] = compound: C1/C(=C\C2=CC=CS2)/C(=O)/C(=C/C3=CC=CS3)/C1 + C[C@]1(O)C[C@@H](c2nc(-c3ccc4ccc(-c5ccccc5)nc4c3)c3c(N)nccn32)C1 [Linsitinib] (partner 1 µM)
Outline: as §1

In the case of NCI-H23, the relative viability (Lestaurtinib + Foretinib; first compound 0.005 µM) is reported as 1.02, the relative viability (Lestaurtinib + Foretinib; first compound 0.01581 µM) is reported as 1.22 and the relative viability (Lestaurtinib + Foretinib; first compound 0.05 µM) is reported as 0.837. For the same cell line, the relative viability (Lestaurtinib + Foretinib; first compound 0.1581 µM) was 0.635, the relative viability (Lestaurtinib + Foretinib; first compound 0.5 µM) was 0.321 and the relative viability (Lestaurtinib + Alpelisib; first compound 0.005 µM) was 0.666. The relative viability (Lestaurtinib + Alpelisib; first compound 0.01581 µM) was 0.552, the relative viability (Lestaurtinib + Alpelisib; first compound 0.05 µM) was 0.571 and the relative viability (Lestaurtinib + Alpelisib; first compound 0.1581 µM) was 0.565. For the same cell line, the relative viability (Lestaurtinib + Alpelisib; first compound 0.5 µM) was 0.236, the relative viability (TPCA-1 + Navitoclax; first compound 0.04 µM) was 0.823 and the relative viability (TPCA-1 + Navitoclax; first compound 0.1265 µM) was 0.742. For the same cell line, the relative viability (TPCA-1 + Navitoclax; first compound 0.4 µM) was 0.687, the relative viability (TPCA-1 + Navitoclax; first compound 1.265 µM) was 0.616 and the relative viability (TPCA-1 + Navitoclax; first compound 4 µM) was 0.694. The relative viability ([1]; first compound 0.2 µM) was 0.584, the relative viability ([1]; first compound 0.6325 µM) was 0.51 and the relative viability ([1]; first compound 2 µM) was 0.67. For the same cell line, the relative viability ([1]; first compound 6.325 µM) was 0.437 and the relative viability ([1]; first compound 20 µM) was 0.643.
With NCI-H1651 the relative viability (Lestaurtinib + Foretinib; first compound 0.005 µM) was 0.85, the relative viability (Lestaurtinib + Foretinib; first compound 0.01581 µM) was 0.8 and the relative viability (Lestaurtinib + Foretinib; first compound 0.05 µM) was 0.844. For the same cell line, the relative viability (Lestaurtinib + Foretinib; first compound 0.1581 µM) was 0.865, the relative viability (Lestaurtinib + Foretinib; first compound 0.5 µM) was 0.53 and the relative viability (Lestaurtinib + Alpelisib; first compound 0.005 µM) was 1.1. The relative viability (Lestaurtinib + Alpelisib; first compound 0.01581 µM) was 0.889, the relative viability (Lestaurtinib + Alpelisib; first compound 0.05 µM) was 0.913 and the relative viability (Lestaurtinib + Alpelisib; first compound 0.1581 µM) was 0.845. The relative viability (Lestaurtinib + Alpelisib; first compound 0.5 µM) was 0.529, the relative viability (TPCA-1 + Navitoclax; first compound 0.04 µM) was 0.97 and the relative viability (TPCA-1 + Navitoclax; first compound 0.1265 µM) was 0.913. It also gave a relative viability (TPCA-1 + Navitoclax; first compound 0.4 µM) of 0.947, a relative viability (TPCA-1 + Navitoclax; first compound 1.265 µM) of 1.16 and a relative viability (TPCA-1 + Navitoclax; first compound 4 µM) of 0.995. The relative viability ([1]; first compound 0.2 µM) was 1.11, the relative viability ([1]; first compound 0.6325 µM) was 1.06 and the relative viability ([1]; first compound 2 µM) was 0.92. The relative viability ([1]; first compound 20 µM) was 1.05.
Work on NCI-H1975 yielded a relative viability (Lestaurtinib + Foretinib; first compound 0.005 µM) of 1.09, a relative viability (Lestaurtinib + Foretinib; first compound 0.01581 µM) of 0.99 and a relative viability (Lestaurtinib + Foretinib; first compound 0.05 µM) of 0.927. It also gave a relative viability (Lestaurtinib + Foretinib; first compound 0.1581 µM) of 0.731, a relative viability (Lestaurtinib + Foretinib; first compound 0.5 µM) of 0.538 and a relative viability (Lestaurtinib + Alpelisib; first compound 0.005 µM) of 0.658. It also gave a relative viability (Lestaurtinib + Alpelisib; first compound 0.01581 µM) of 0.644, a relative viability (Lestaurtinib + Alpelisib; first compound 0.05 µM) of 0.372 and a relative viability (Lestaurtinib + Alpelisib; first compound 0.1581 µM) of 0.347. It also gave a relative viability (Lestaurtinib + Alpelisib; first compound 0.5 µM) of 0.212, a relative viability (TPCA-1 + Navitoclax; first compound 0.04 µM) of 1.16 and a relative viability (TPCA-1 + Navitoclax; first compound 0.1265 µM) of 1.02. The relative viability (TPCA-1 + Navitoclax; first compound 0.4 µM) was 1.1, the relative viability (TPCA-1 + Navitoclax; first compound 1.265 µM) was 0.904 and the relative viability (TPCA-1 + Navitoclax; first compound 4 µM) was 0.782. The relative viability ([1]; first compound 0.2 µM) was 1.02, the relative viability ([1]; first compound 0.6325 µM) was 0.947 and the relative viability ([1]; first compound 2 µM) was 0.957. The relative viability ([1]; first compound 6.325 µM) was 0.808 and the relative viability ([1]; first compound 20 µM) was 0.9.
For COR-L23, the relative viability (Lestaurtinib + Foretinib; first compound 0.005 µM) was 1.03, the relative viability (Lestaurtinib + Foretinib; first compound 0.01581 µM) was 0.908 and the relative viability (Lestaurtinib + Foretinib; first compound 0.05 µM) was 0.8. It also gave a relative viability (Lestaurtinib + Foretinib; first compound 0.1581 µM) of 0.825, a relative viability (Lestaurtinib + Foretinib; first compound 0.5 µM) of 0.391 and a relative viability (Lestaurtinib + Alpelisib; first compound 0.005 µM) of 0.716. The relative viability (Lestaurtinib + Alpelisib; first compound 0.01581 µM) was 0.702, the relative viability (Lestaurtinib + Alpelisib; first compound 0.1581 µM) was 0.478 and the relative viability (Lestaurtinib + Alpelisib; first compound 0.5 µM) was 0.192. For the same cell line, the relative viability (TPCA-1 + Navitoclax; first compound 0.04 µM) was 1.28, the relative viability (TPCA-1 + Navitoclax; first compound 0.1265 µM) was 0.953 and the relative viability (TPCA-1 + Navitoclax; first compound 0.4 µM) was 1.03. For the same cell line, the relative viability (TPCA-1 + Navitoclax; first compound 1.265 µM) was 1.03, the relative viability (TPCA-1 + Navitoclax; first compound 4 µM) was 0.733 and the relative viability ([1]; first compound 0.2 µM) was 0.981. The relative viability ([1]; first compound 0.6325 µM) was 0.921, the relative viability ([1]; first compound 2 µM) was 0.875 and the relative viability ([1]; first compound 6.325 µM) was 0.838. The relative viability ([1]; first compound 20 µM) was 0.887.
Work on LOU-NH91 yielded a relative viability (Lestaurtinib + Foretinib; first compound 0.005 µM) of 0.921, a relative viability (Lestaurtinib + Foretinib; first compound 0.01581 µM) of 0.842 and a relative viability (Lestaurtinib + Foretinib; first compound 0.05 µM) of 0.844. The relative viability (Lestaurtinib + Foretinib; first compound 0.1581 µM) was 0.651, the relative viability (Lestaurtinib + Foretinib; first compound 0.5 µM) was 0.459 and the relative viability (Lestaurtinib + Alpelisib; first compound 0.005 µM) was 0.757. For the same cell line, the relative viability (Lestaurtinib + Alpelisib; first compound 0.01581 µM) was 0.666, the relative viability (Lestaurtinib + Alpelisib; first compound 0.05 µM) was 0.623 and the relative viability (Lestaurtinib + Alpelisib; first compound 0.1581 µM) was 0.472. The relative viability (Lestaurtinib + Alpelisib; first compound 0.5 µM) was 0.416, the relative viability (TPCA-1 + Navitoclax; first compound 0.04 µM) was 0.822 and the relative viability (TPCA-1 + Navitoclax; first compound 0.1265 µM) was 0.585. It also gave a relative viability (TPCA-1 + Navitoclax; first compound 0.4 µM) of 0.692, a relative viability (TPCA-1 + Navitoclax; first compound 1.265 µM) of 0.65 and a relative viability (TPCA-1 + Navitoclax; first compound 4 µM) of 0.507. The relative viability ([1]; first compound 0.2 µM) was 1, the relative viability ([1]; first compound 0.6325 µM) was 0.898 and the relative viability ([1]; first compound 2 µM) was 1.03. For the same cell line, the relative viability ([1]; first compound 6.325 µM) was 0.806 and the relative viability ([1]; first compound 20 µM) was 1.02.
In the case of NCI-H441, the relative viability (Lestaurtinib + Foretinib; first compound 0.005 µM) is reported as 1.07, the relative viability (Lestaurtinib + Foretinib; first compound 0.01581 µM) is reported as 1.02 and the relative viability (Lestaurtinib + Foretinib; first compound 0.05 µM) is reported as 0.795. It also gave a relative viability (Lestaurtinib + Foretinib; first compound 0.1581 µM) of 0.933, a relative viability (Lestaurtinib + Foretinib; first compound 0.5 µM) of 0.277 and a relative viability (Lestaurtinib + Alpelisib; first compound 0.005 µM) of 0.584. For the same cell line, the relative viability (Lestaurtinib + Alpelisib; first compound 0.01581 µM) was 0.687, the relative viability (Lestaurtinib + Alpelisib; first compound 0.05 µM) was 0.416 and the relative viability (Lestaurtinib + Alpelisib; first compound 0.1581 µM) was 0.421. The relative viability (Lestaurtinib + Alpelisib; first compound 0.5 µM) was 0.289, the relative viability (TPCA-1 + Navitoclax; first compound 0.04 µM) was 0.604 and the relative viability (TPCA-1 + Navitoclax; first compound 0.1265 µM) was 0.405. For the same cell line, the relative viability (TPCA-1 + Navitoclax; first compound 0.4 µM) was 0.736, the relative viability (TPCA-1 + Navitoclax; first compound 1.265 µM) was 0.578 and the relative viability (TPCA-1 + Navitoclax; first compound 4 µM) was 0.297. The relative viability ([1]; first compound 0.2 µM) was 0.627, the relative viability ([1]; first compound 0.6325 µM) was 0.692 and the relative viability ([1]; first compound 2 µM) was 0.664. It also gave a relative viability ([1]; first compound 6.325 µM) of 0.547 and a relative viability ([1]; first compound 20 µM) of 0.583.
In the case of NCI-H647, the relative viability (Lestaurtinib + Foretinib; first compound 0.005 µM) is reported as 1.41, the relative viability (Lestaurtinib + Foretinib; first compound 0.01581 µM) is reported as 1.15 and the relative viability (Lestaurtinib + Foretinib; first compound 0.05 µM) is reported as 0.705. It also gave a relative viability (Lestaurtinib + Foretinib; first compound 0.1581 µM) of 0.478, a relative viability (Lestaurtinib + Foretinib; first compound 0.5 µM) of 0.16 and a relative viability (Lestaurtinib + Alpelisib; first compound 0.005 µM) of 0.972. It also gave a relative viability (Lestaurtinib + Alpelisib; first compound 0.01581 µM) of 0.87, a relative viability (Lestaurtinib + Alpelisib; first compound 0.05 µM) of 0.267 and a relative viability (Lestaurtinib + Alpelisib; first compound 0.1581 µM) of 0.231. For the same cell line, the relative viability (Lestaurtinib + Alpelisib; first compound 0.5 µM) was 0.14, the relative viability (TPCA-1 + Navitoclax; first compound 0.04 µM) was 1.1 and the relative viability (TPCA-1 + Navitoclax; first compound 0.1265 µM) was 0.9. For the same cell line, the relative viability (TPCA-1 + Navitoclax; first compound 0.4 µM) was 1.22, the relative viability (TPCA-1 + Navitoclax; first compound 1.265 µM) was 0.67 and the relative viability (TPCA-1 + Navitoclax; first compound 4 µM) was 0.706. The relative viability ([1]; first compound 0.2 µM) was 1.27, the relative viability ([1]; first compound 0.6325 µM) was 1.36 and the relative viability ([1]; first compound 2 µM) was 1.03. It also gave a relative viability ([1]; first compound 6.325 µM) of 0.969 and a relative viability ([1]; first compound 20 µM) of 1.17.
Work on NCI-H1915 yielded a relative viability (Lestaurtinib + Foretinib; first compound 0.005 µM) of 1.14, a relative viability (Lestaurtinib + Foretinib; first compound 0.01581 µM) of 1.21 and a relative viability (Lestaurtinib + Foretinib; first compound 0.05 µM) of 0.869. For the same cell line, the relative viability (Lestaurtinib + Foretinib; first compound 0.1581 µM) was 0.762, the relative viability (Lestaurtinib + Foretinib; first compound 0.5 µM) was 0.287 and the relative viability (Lestaurtinib + Alpelisib; first compound 0.005 µM) was 1.06. For the same cell line, the relative viability (Lestaurtinib + Alpelisib; first compound 0.01581 µM) was 1.05, the relative viability (Lestaurtinib + Alpelisib; first compound 0.05 µM) was 1.04 and the relative viability (Lestaurtinib + Alpelisib; first compound 0.1581 µM) was 0.761. The relative viability (Lestaurtinib + Alpelisib; first compound 0.5 µM) was 0.376, the relative viability (TPCA-1 + Navitoclax; first compound 0.04 µM) was 0.788 and the relative viability (TPCA-1 + Navitoclax; first compound 0.1265 µM) was 0.733. The relative viability (TPCA-1 + Navitoclax; first compound 0.4 µM) was 0.783, the relative viability (TPCA-1 + Navitoclax; first compound 1.265 µM) was 0.771 and the relative viability (TPCA-1 + Navitoclax; first compound 4 µM) was 0.694. The relative viability ([1]; first compound 0.2 µM) was 1.14, the relative viability ([1]; first compound 0.6325 µM) was 1.08 and the relative viability ([1]; first compound 2 µM) was 1.09. It also gave a relative viability ([1]; first compound 6.325 µM) of 1.04 and a relative viability ([1]; first compound 20 µM) of 1.1.
